Here are results for three compounds from patent US8354407B2 (Boehringer Ingelheim International GmbH, priority 2006, dated 2013).

This assay concerns the target T1, full-length human PKCα enzyme (Homo sapiens, UniProt P17252).
T1 construct: full-length human PKCα enzyme; purchased Upstate Biotechnology
Description: Assessment of PKC-α Inhibitory Activity (MALDI-TOF kinase assay). The note with it: full-length human PKCα 0.12 μg/ml; ATP 45 μM; neurogranin 28-43 peptide 22 μM; 30 minute incubation at 24° C.; MALDI-TOF MS readout. Format: biochemical. The procedure: Measurement of PKCα enzyme activity is performed using full-length human PKCα enzyme (Upstate Biotechnology) at a final concentration of 0.12 μg/ml in a kinase assay buffer (0.09 mg/ml bovine serum albumin (BSA), 210 μM ethylenediaminetetraacetic acid (EDTA), 360 μM CaCl2, 1 mM Tris-HCl, pH=7.5, 0.5 mM MgCl2, 0.015 mg/ml phosphatidylserine and 0.015 mg/ml diacylglycerol). The reaction is initiated by addition of adenosine triphosphate (ATP; final concentration 45 μM) and a peptide substrate consisting of amino acids 28-43 (Ala-Ala-Lys-Ile-Gln-Ala-Ser-Phe-Arg-Gly-His-Met-Ala-Arg-Lys-Lys) of neurogranin (Promega; final concentration 22 μM). After a 30 minute incubation at 24° C. the reaction is terminated by adding 5 μL of the reaction mixture into 50 μL of MALDI matrix solution (5 mg/ml α-cyano-4-hydroxycinnamic acid in 50% Acetonitrile/H2O, 0.1% TFA, 5 mM ammonium phosphate). Two microliters of the stopped reaction mixture is transferred onto a MALDI-TOF mass spectrometer target plate.
All spectra are collected on an Applied Biosystems 4700 Proteomics Analyzer MALDI-TOF MS equipped with a Nd:YAG laser (355 nm, 3 ns pulse width, 200 Hz repetition rate) in negative ion reflector mode. The system is operated with 4700 Explorer software, version 3.0. Automated acquisition parameters are adjusted to capture and average only those individual spectra within defined success criteria. Specifically, signal intensities for the substrate peptide are set to a minimum threshold of 3000 counts and a maximum intensity of 65,000 counts. This ensured that neither null spectra nor saturated spectra are averaged into the final readout. Between 1000 and 1500 laser shots are averaged for each sample. Data are collected in triplicate from 3 successive days to capture the maximum variability related to preparation of enzyme reaction, transfer of samples to MALDI target plates, data collection, and data extraction.
The isotope cluster areas for each peptide substrate and product peaks are extracted into a Microsoft Excel worksheet from the 10×10 array of spectral data simultaneously using the automated analysis function provided within the 4700 Explore software. The isotope cluster area is defined by the software algorithm based on the molecular weight and the general elemental composition of the peptides. The percent conversion (% C) of substrate to product is calculated as the cluster area of the product (P) divided by the sum of the cluster areas of the substrate (S) and the product multiplied by 100 as represented by the following equation: […]
For dose-dependent inhibition studies, the inhibition is plotted as a % Maximal Activity (% MA). Equation one is a measure of the ratio of product to substrate then solving for the % C. However, to measure inhibition of the enzyme activity, one must measure the degree to which that activity (% C) is curtailed. Thus the dose-dependant inhibition data is plotted as % MA where the maximal activity is the % C measured in control reactions with no inhibitor as represented by the following equation: […]
Take `Clc1cc(Nc2nccc(NCCCN3CCCC3)n2)ccc1OCc1ccccc1` [N^2-(4-(Benzyloxy)-3-chlorophenyl)-N^4-(3-pyrrolidin-1-yl-propyl)-pyrimidine-2,4-diamine]: half-maximal inhibition (IC50) required 40 nM.
The same measure for `FC(F)(F)c1cccc(Nc2nccc(NCCCN3CCCC3)n2)c1` [N^2-[3-Trifluoromethyl-phenyl]-N^4-(3-pyrrolidin-1-yl-propyl)-pyrimidine-2,4-diamine]: 0.5 nM.
The same measure for `Cc1cccc(Nc2nccc(NCCCN3CCCC3)n2)c1` [N^2-(3-Methylphenyl)-N^4-(3-pyrrolidin-1-yl-propyl)-pyrimidine-2,4-diamine]: 40 nM.
